Legend:
[1] = biological target: T1, Multidrug and toxin extrusion protein 2 (Homo sapiens, UniProt Q86VL8); assay: Substrate activity at MATE2-K (unknown origin) expressed in HEK293 cells assessed as increase in uptake by HPLC-MS/MS analysis; format: cell-based
T1 sequence (Q86VL8 whole entry): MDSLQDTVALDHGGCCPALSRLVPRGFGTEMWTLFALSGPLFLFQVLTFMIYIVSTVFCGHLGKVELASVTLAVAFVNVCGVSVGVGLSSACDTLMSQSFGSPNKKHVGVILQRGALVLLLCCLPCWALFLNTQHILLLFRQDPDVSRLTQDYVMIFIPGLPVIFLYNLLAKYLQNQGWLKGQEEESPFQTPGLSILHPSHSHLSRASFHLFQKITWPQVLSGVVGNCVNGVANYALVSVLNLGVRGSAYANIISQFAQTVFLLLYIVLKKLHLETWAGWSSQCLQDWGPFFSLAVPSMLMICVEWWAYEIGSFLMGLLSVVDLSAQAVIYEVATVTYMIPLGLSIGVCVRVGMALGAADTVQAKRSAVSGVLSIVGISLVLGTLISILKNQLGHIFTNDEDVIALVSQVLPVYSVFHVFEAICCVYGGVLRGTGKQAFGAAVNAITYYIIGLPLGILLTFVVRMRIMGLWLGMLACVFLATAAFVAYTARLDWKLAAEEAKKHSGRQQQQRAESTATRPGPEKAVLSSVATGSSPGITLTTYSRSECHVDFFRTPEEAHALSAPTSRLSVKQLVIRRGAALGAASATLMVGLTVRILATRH

MATE1 = biological target: T2, MATE1 (Homo sapiens, UniProt Q96FL8); assay: in vitro
T2 sequence (Q96FL8 whole entry): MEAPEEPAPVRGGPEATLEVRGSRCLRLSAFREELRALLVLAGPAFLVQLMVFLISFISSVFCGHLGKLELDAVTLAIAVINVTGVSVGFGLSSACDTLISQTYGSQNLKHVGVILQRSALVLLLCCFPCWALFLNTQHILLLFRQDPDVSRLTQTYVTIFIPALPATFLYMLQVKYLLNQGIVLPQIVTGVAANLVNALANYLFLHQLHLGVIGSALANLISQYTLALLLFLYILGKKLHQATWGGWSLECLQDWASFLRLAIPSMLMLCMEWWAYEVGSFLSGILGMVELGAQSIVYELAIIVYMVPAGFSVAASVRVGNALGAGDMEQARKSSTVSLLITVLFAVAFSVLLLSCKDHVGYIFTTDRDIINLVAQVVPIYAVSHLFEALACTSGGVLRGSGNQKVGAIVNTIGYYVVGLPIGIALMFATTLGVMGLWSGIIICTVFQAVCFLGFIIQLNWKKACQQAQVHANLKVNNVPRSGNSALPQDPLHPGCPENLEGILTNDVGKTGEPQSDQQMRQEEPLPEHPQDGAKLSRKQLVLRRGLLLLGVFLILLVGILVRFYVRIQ

[2] = biological target: T3, Multidrug and toxin extrusion protein 1 (Homo sapiens, UniProt Q96FL8); assay: Substrate activity at MATE1 (unknown origin) expressed in HEK293 cells assessed as intrinsic clearance by measuring ratio of Vmax (maximum transport velocity) over Km measured per mg of protein by HPLC-MS/MS analysis; format: cell-based
T3 sequence (Q96FL8 whole entry): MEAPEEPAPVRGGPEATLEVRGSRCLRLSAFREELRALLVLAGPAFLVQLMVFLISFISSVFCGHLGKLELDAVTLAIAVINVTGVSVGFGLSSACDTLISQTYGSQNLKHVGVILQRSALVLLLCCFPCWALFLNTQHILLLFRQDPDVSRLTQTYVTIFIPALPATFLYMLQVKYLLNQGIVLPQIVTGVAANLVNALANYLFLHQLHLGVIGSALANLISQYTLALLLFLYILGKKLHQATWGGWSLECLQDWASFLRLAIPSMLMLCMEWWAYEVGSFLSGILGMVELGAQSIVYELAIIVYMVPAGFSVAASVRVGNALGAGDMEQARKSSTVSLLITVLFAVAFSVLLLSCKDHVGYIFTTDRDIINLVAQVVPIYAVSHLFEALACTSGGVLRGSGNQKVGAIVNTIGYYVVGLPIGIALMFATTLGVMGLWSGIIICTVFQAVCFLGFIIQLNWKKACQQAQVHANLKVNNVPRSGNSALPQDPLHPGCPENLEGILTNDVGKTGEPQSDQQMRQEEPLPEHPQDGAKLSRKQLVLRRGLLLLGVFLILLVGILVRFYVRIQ

[3] = biological target: T3, Multidrug and toxin extrusion protein 1; assay: Substrate activity at MATE1 (unknown origin) expressed in HEK293 cells assessed as increase in uptake by HPLC-MS/MS analysis; format: cell-based
[4] = biological target: T3, Multidrug and toxin extrusion protein 1; assay: Substrate activity at MATE1 (unknown origin) expressed in HEK293 cells assessed as Vmax (maximum transport velocity) by HPLC-MS/MS analysis; format: cell-based
[5] = biological target: T1, Multidrug and toxin extrusion protein 2; assay: Substrate activity at MATE2-K (unknown origin) expressed in HEK293 cells assessed as intrinsic clearance by measuring ratio of Vmax (maximum transport velocity) over Km measured per mg of protein by HPLC-MS/MS analysis; format: cell-based
MATE2-K [6] = biological target: T4, MATE2-K (Homo sapiens, UniProt Q86VL8); assay: in vitro
T4 sequence (Q86VL8 whole entry): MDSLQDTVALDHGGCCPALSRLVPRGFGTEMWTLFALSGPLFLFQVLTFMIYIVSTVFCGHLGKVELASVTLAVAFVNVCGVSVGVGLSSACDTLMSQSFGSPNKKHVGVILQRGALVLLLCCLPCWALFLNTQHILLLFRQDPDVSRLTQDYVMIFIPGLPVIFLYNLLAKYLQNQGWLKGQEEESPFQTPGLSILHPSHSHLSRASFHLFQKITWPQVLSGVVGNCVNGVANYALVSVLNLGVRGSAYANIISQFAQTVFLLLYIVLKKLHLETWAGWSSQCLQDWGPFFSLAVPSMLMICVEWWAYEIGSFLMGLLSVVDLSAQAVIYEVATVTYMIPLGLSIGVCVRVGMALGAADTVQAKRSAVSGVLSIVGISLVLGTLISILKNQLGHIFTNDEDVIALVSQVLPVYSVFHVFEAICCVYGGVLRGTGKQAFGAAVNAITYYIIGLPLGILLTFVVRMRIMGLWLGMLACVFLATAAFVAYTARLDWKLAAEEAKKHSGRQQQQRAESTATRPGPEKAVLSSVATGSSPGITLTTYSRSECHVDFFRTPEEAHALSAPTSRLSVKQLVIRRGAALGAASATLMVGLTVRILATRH

[7] = biological target: T1, Multidrug and toxin extrusion protein 2; assay: Substrate activity at MATE2-K (unknown origin) expressed in HEK293 cells assessed as Vmax (maximum transport velocity) by HPLC-MS/MS analysis; format: cell-based
MATE2-K [8] = biological target: T4, MATE2-K; assay: (§1) Substrate activity at MATE2-K (unknown origin) expressed in HEK293 cells assessed as substrate concentration to achieve half of Vmax (maximum transport velocity) measured per mg of protein by HPLC-MS/MS analysis; format: cell-based; conditions: HEK293 cells expressing MATE2-K
not read [9] = substrate: Nc1nc(=O)n([C@@H]2CS[C@H](CO)O2)cc1F; assay: not read
not read [10] = substrate: Cc1ncc(C[n+]2csc(CCO)c2C)c(N)n1; assay: not read
not read [11] = substrate: Cc1ncc(CO)c(CO)c1O; assay: not read
not read [12] = substrate: CC(C)NC[C@@H](O)COc1ccc(CC(N)=O)cc1; assay: not read
not read [13] = substrate: NCCc1ccc(O)c(O)c1; assay: not read
not read [14] = substrate: CN(C)CCc1c[nH]c2ccc(C[C@H]3COC(=O)N3)cc12; assay: not read
not read [15] = substrate: CNC[C@H](O)c1ccc(O)c(O)c1; assay: not read
[16] = substrate: c1c2c(cc3c1OCO3)-c1cc3ccc4c(c3c[n+]1CC2)OCO4; assay: as §1; format: cell-based, Homo sapiens
[17] = substrate: CC(CCc1ccc(O)cc1)NCCc1ccc(O)c(O)c1; assay: as §1; format: cell-based, Homo sapiens
[18] = substrate: COCCn1c2c([n+](Cc3cnccn3)c1C)C(=O)c1ccccc1C2=O; assay: as §1; format: cell-based, Homo sapiens
[19] = substrate: CN(C)C(=O)Oc1cccc([N+](C)(C)C)c1; assay: as §1; format: cell-based, Homo sapiens
[20] = substrate: C[N+]1(CC2CC2)CC[C@]23c4c5ccc(O)c4O[C@H]2C(=O)CC[C@@]3(O)[C@H]1C5; assay: as §1; format: cell-based, Homo sapiens
[21] = substrate: C[C@H]1N=C(N(C)C)N=C(N)N1; assay: as §1; format: cell-based, Homo sapiens
[22] = substrate: CCN1CCCC1CNC(=O)c1cc(S(=O)(=O)CC)c(N)cc1OC; assay: as §1; format: cell-based, Homo sapiens
[23] = HEK293 cells expressing MATE2-K

`COCCn1c2c([n+](Cc3cnccn3)c1C)C(=O)c1ccccc1C2=O` [SEPANTRONIUM] was tested, and the Activity [1] was “Dose-dependent-effect”, the uptake ratio at 1 min, 2.5 µM (MATE1; HEK293 cells expressing MATE1) was over 2 and the CL [2] was 3.76 µL/min. For the same molecule, the Activity [3] was “Dose-dependent-effect”, the Vmax [4] was 304 pmol/min and the CL [5] was 9.19 µL/min. It also gave an uptake ratio at 1 min, 2.5 µM (MATE2-K [6]; [23]) of over 2.

`CN[C@@H]1CCc2[nH]c3ccc(C(N)=O)cc3c2C1` [FROVATRIPTAN] was tested, and the Activity [1] was “Dose-dependent-effect”, the Vmax [7] was 869 pmol/min and the uptake ratio at 1 min, 2.5 µM (MATE1; hek293) was over 2. The CL [2] was 64.9 µL/min, the Activity [3] was “Dose-dependent-effect” and the Vmax [4] was 4568 pmol/min. For the same molecule, the CL [5] was 77.8 µL/min and the uptake ratio at 1 min, 2.5 µM (MATE2-K [6]; hek293) was over 2.

`CN(C)CCc1c[nH]c2ccc(C[C@@H]3COC(=O)N3)cc12` gave a Vmax [7] of 992 pmol/min, a Km (MATE2-K [8]) of 18.3 µM and a CL [2] of 94.5 µL/min. The Vmax [4] was 2624 pmol/min and the CL [5] was 54.2 µL/min.

In the case of `CN(C)C(=O)Oc1cccc([N+](C)(C)C)c1` [NEOSTIGMINE], the Activity [1] is reported as “Dose-dependent-effect”, the uptake ratio at 1 min, 2.5 µM (MATE1; HEK293 cells expressing MATE1) is reported as over 2 and the CL [2] is reported as 45.2 µL/min. For the same molecule, the Activity [3] was “Dose-dependent-effect”, the Vmax [4] was 7255 pmol/min and the CL [5] was 8.14 µL/min. The uptake ratio at 1 min, 2.5 µM (MATE2-K [6]; [23]) was over 2.

B1: Multidrug and toxin extrusion protein 2 (Homo sapiens) (protein)
chain: MDSLQDTVALDHGGCCPALSRLVPRGFGTEMWTLFALSGPLFLFQVLTFMIYIVSTVFCGHLGKVELASVTLAVAFVNVCGVSVGVGLSSACDTLMSQSFGSPNKKHVGVILQRGALVLLLCCLPCWALFLNTQHILLLFRQDPDVSRLTQDYVMIFIPGLPVIFLYNLLAKYLQNQGWLKGQEEESPFQTPGLSILHPSHSHLSRASFHLFQKITWPQVLSGVVGNCVNGVANYALVSVLNLGVRGSAYANIISQFAQTVFLLLYIVLKKLHLETWAGWSSQCLQDWGPFFSLAVPSMLMICVEWWAYEIGSFLMGLLSVVDLSAQAVIYEVATVTYMIPLGLSIGVCVRVGMALGAADTVQAKRSAVSGVLSIVGISLVLGTLISILKNQLGHIFTNDEDVIALVSQVLPVYSVFHVFEAICCVYGGVLRGTGKQAFGAAVNAITYYIIGLPLGILLTFVVRMRIMGLWLGMLACVFLATAAFVAYTARLDWKLAAEEAKKHSGRQQQQRAESTATRPGPEKAVLSSVATGSSPGITLTTYSRSECHVDFFRTPEEAHALSAPTSRLSVKQLVIRRGAALGAASATLMVGLTVRILATRH
B1 gave a Km (not read [9]) of 873 µM, a Vmax (not read [9]) of 0.00263 µmol/min and a Vmax (not read [10]) of 0.000109 µmol/min. For the same molecule, the Km (not read [11]) was 495 µM, the Vmax (not read [11]) was 0.000593 µmol/min and the Km (not read [12]) was 181 µM. It also gave a Vmax (not read [12]) of 0.00296 µmol/min, a Km (not read [13]) of 961 µM and a Vmax (not read [13]) of 0.00122 µmol/min. It also gave a Km (not read [14]) of 94.5 µM, a Vmax (not read [14]) of 0.00166 µmol/min and a Km (not read [15]) of 1510 µM. For the same molecule, the Vmax (not read [15]) was 0.00297 µmol/min, the Km [16] was 1.88 µM and the Vmax [16] was 0.000246 µmol/min. For the same molecule, the Km [17] was 86.4 µM, the Vmax [17] was 0.000493 µmol/min and the Km [18] was 8.54 µM. For the same molecule, the Vmax [18] was 7.85e-05 µmol/min, the Km [19] was 385 µM and the Vmax [19] was 0.00314 µmol/min. For the same molecule, the Km [20] was 86.8 µM, the Vmax [20] was 4.16e-05 µmol/min and the Km [21] was 81.6 µM. It also gave a Vmax [21] of 0.00281 µmol/min, a Km [22] of 39.9 µM and a Vmax [22] of 0.00071 µmol/min.

— ChEMBL document CHEMBL6182944, “Substrate Specificity of the Organic Cation Transporters MATE1 and MATE2K and Functional Overlap with OCT1 and OCT2” (J Med Chem, 2025)
